Test results from patent publication US4102994A, “Aliphatic amido-quaternary ammonium anti-microbial compounds” (Colgate-Palmolive Company, priority 1977, dated 1978).
Read-outs that look alike come from different tables or passages of the source.

Key:
[1] = test system: C. albicans; test: Test tube serial dilution test (minimal inhibitory concentration); assay type: cell-based; settings: Candida albicans
Method: (§1) The anti-microbial nature of the instant novel compounds was shown by a standard test tube serial dilution test in which an appropriate number of test tubes of broth containing decreasing concentrations of the test agent was innoculated with the test organism. After a suitable period of incubation, the tubes were examined for the presence or absence of growth. The activity of the test agent was the lowest concentration which inhibited the growth of the organism and is expressed as the minimal inhibitory concentration in ppm. As shown in the following table of antimicrobial data, a definite break occurs between compounds wherein R^4 contains 8 carbons and 10 carbons.

[2] = test system: E. coli; test: as above; assay type: cell-based; settings: Escherichia coli
Method: as §1

[3] = test system: S. aureus; test: as above; assay type: cell-based; settings: Staphylococcus aureus
Method: as §1

[4] = test system: Str. mitis; test: as above; assay type: cell-based; settings: Streptococcus mitis
Method: as §1

[5] = test system: T. mentagrophytes; test: as above; assay type: cell-based, Trichophyton mentogrophytes; settings: Trichophyton mentagrophytes
Method: as §1

[6] = test system: A. niger; test: as above; assay type: cell-based; settings: Aspergillus niger, broth serial dilution, read-out: Minimum Inhibitory Concentration
Method: as §1

[7] = test system: P. aeruginosa; test: as above; assay type: cell-based; settings: Pseudomonas aeruginosa, broth serial dilution, read-out: Minimum Inhibitory Concentration
Method: as §1

[8] = test system: Str. mutans; test: as above; assay type: cell-based; settings: Streptococcus mutans, broth serial dilution, read-out: Minimum Inhibitory Concentration
Method: as §1

[9] = test system: Str. sanguis; test: as above; assay type: cell-based; settings: Streptococcus, broth serial dilution, read-out: Minimum Inhibitory Concentration
Method: as §1

[10] = test system: A. naeslundii; test: as above; assay type: cell-based, Actinomycetes naeslundii; settings: Actinomyces naeslundii, broth serial dilution, read-out: Minimum Inhibitory Concentration
Method: as §1

[11] = test system: dental calculus; test: Dental calculus inhibition in rats on Zipkin-McClure calculus producing diet, Baer's method; assay type: in vivo, littermated albino rats; settings: .1% test solution, teeth swabbed thirty seconds each day for six weeks, vs water control, 99% significant
Text: The quaternary ammonium amides of adamantanecarboxylic acid are particularly effective in inhibiting the development of dental calculus as shown by the results of tests on littermated albino rats, in groups of 15 males and 15 females who were fed a Zipkin-McClure calculus producing diet. For six weeks the teeth of each animal were swabbed for thirty seconds each day with a test solution or water for the control group. The animals were then sacrificed, defleshed and scored by Baer's method for calculus. The results were analyzed by Student's "t" test and in the results quoted were 99% significant.

[12] = Table III, no quantity or unit printed in the table, minimal inhibitory concentration in ppm, read-out: antimicrobial results, C.albicans (Table III)
[13] = Table III, no quantity or unit printed in the table, minimal inhibitory concentration in ppm, read-out: antimicrobial results, E.coli (Table III)
[14] = read-out: antimicrobial results, S.aureus (Table III)
[15] = Table III, no quantity or unit printed in the table, minimal inhibitory concentration in ppm, read-out: antimicrobial results, S.mitis (Table III)
[16] = Table III, no quantity or unit printed in the table, minimal inhibitory concentration in ppm, read-out: antimicrobial results, T.mentagrophytes (Table III)
[17] = C. albicans, broth serial dilution, read-out: Minimum Inhibitory Concentration
[18] = E. coli, broth serial dilution, read-out: Minimum Inhibitory Concentration
[19] = S. aureus, broth serial dilution, read-out: Minimum Inhibitory Concentration
[20] = T. mentagrophytes, broth serial dilution, read-out: Minimum Inhibitory Concentration
[21] = Str. mitis, broth serial dilution, read-out: Minimum Inhibitory Concentration

SMILES | MIC [1, 12] | MIC [2, 13] | MIC [3, 14] | MIC [4, 15] | MIC [5, 16] | MIC [6] | MIC [1, 17] | MIC [2, 18] | MIC [7] | MIC [3, 19] | MIC [8] | MIC [9] | MIC [10] | MIC [5, 20] | MIC [4, 21] | Calculus Reduction, Females ([11]; females) | Calculus Reduction, Males ([11]; males)
CCCCCCCCCCCCCC[N+](C)(C)CCCNC(=O)CCCCCCCCC.[Cl-] [R C9, R^4 C14, X Cl, 3-Decaneamidopropyldimethyltetradecyl ammonium chloride] | 3.12 µg/mL | 100 µg/mL | 3.12 µg/mL | 6.25 µg/mL | 6.25 µg/mL | – | – | – | – | – | – | – | – | – | – | – | –
CCCCCCCCCCCCCC[N+](C)(C)CCCNC(=O)[C@H]1CC[C@@H]2CCC[C@@H]21 (relative stereo) [Comp.14, 3-(exo,cis-Bicyclooctane-2-carboxamido)propyltetradecyl dimethyl ammonium bromide] | – | – | – | – | – | 25 µg/mL | 3.12 µg/mL | 50 µg/mL | 50 µg/mL | 0.78 µg/mL | < 0.05 µg/mL | 6.25 µg/mL | < 0.05 µg/mL | 3.12 µg/mL | – | – | –
CCCCCC[N+](CC)(CC)CCNC(=O)C12CC3CC(CC(C3)C1)C2 [R^4 =C6 H13, reference compound] | – | – | – | – | – | 100 µg/mL | 100 µg/mL | – | – | 100 µg/mL | 100 µg/mL | 50 µg/mL | 50 µg/mL | 50 µg/mL | – | – | –
CCCCCCCCCC[N+](CC)(CC)CCNC(=O)C12CC3CC(CC(C3)C1)C2 [R^4 =C10 H21] | – | – | – | – | – | 50 µg/mL | 6.25 µg/mL | – | – | 3.12 µg/mL | 6.25 µg/mL | 6.25 µg/mL | 1.56 µg/mL | 50 µg/mL | – | – | –
CCCCCCCCCC[N+](C)(C)CCCNC(=O)CCCCCCC.[I-] [Comp.3, 3-Octaneamidopropyldimethyldecyl ammonium iodide] | – | – | – | – | – | 25 µg/mL | 6.25 µg/mL | 50 µg/mL | 25 µg/mL | 12.5 µg/mL | 0.78 µg/mL | 6.25 µg/mL | 12.5 µg/mL | 12.5 µg/mL | – | – | –
CCCCCCCCCCCCCC[N+](C)(C)CCCNC(=O)C12CC3CC(CC(C3)C1)C2 [Comp.10, 3-(1'-adamantanecarboxamido)propyldimethyltetradecyl ammonium bromide] | – | – | – | – | – | 50 µg/mL | 6.25 µg/mL | 25 µg/mL | – | 0.39 µg/mL | – | – | – | 25 µg/mL | 0.39 µg/mL | 6.27% | 43.43%
CCCCCCCCCCCC[N+](C)(C)CCCNC(=O)CCCCCCCC [R C8, R^4 C12, X I] | 1.56 µg/mL | 12.5 µg/mL | 0.78 µg/mL | 1.56 µg/mL | 12.5 µg/mL | – | – | – | – | – | – | – | – | – | – | – | –
CCCCCCCCCCCC[N+](CC)(CC)CCNC(=O)C12CC3CC(CC(C3)C1)C2 [R^4 =C12 H25] | – | – | – | – | – | 12.5 µg/mL | 1.56 µg/mL | – | – | 1.56 µg/mL | 0.78 µg/mL | 3.12 µg/mL | 0.39 µg/mL | 3.12 µg/mL | – | – | –
CCCCCCCCCCCC[N+](C)(C)CCCNC(=O)[C@H]1CC[C@@H]2CCC[C@@H]21 (relative stereo) [Comp.15] | – | – | – | – | – | 25 µg/mL | 3.12 µg/mL | 25 µg/mL | 25 µg/mL | 1.56 µg/mL | 0.1 µg/mL | 3.12 µg/mL | 0.19 µg/mL | 6.25 µg/mL | – | – | –
CCCCCCCCCCCCCC[N+](C)(C)CCCNC(=O)CCCCCCCCCCC.[Cl-] [R C11, R^4 C14, X Cl, 3-Dodecaneamidopropyldimethyltetradecyl ammonium chloride] | 25 µg/mL | 100 µg/mL | 6.25 µg/mL | 12.5 µg/mL | 25 µg/mL | – | – | – | – | – | – | – | – | – | – | – | –
CCCCCCCCCCCCCC[N+](C)(C)CCCNC(=O)C1CC2CCC1C2 (centres unmarked) [Comp.16, 3-(2'-norbornanecarboxamido)propyltetradecyldimethyl ammonium bromide] | – | – | – | – | – | 25 µg/mL | 3.12 µg/mL | 50 µg/mL | 50 µg/mL | 1.56 µg/mL | 0.1 µg/mL | 1.56 µg/mL | 0.1 µg/mL | 6.25 µg/mL | – | – | –
CCCCCCCCCCCCCC[N+](C)(C)CCCNC(=O)CCCCCCCC.[Cl-] [R C8, R^4 C14, X Cl, 3-Nonaneamidopropyldimethyltetradecyl ammonium chloride] | 1.56 µg/mL | 100 µg/mL | 1.56 µg/mL | 0.78 µg/mL | 3.12 µg/mL | – | – | – | – | – | – | – | – | – | – | – | –
CCCCCCCCCCCC[N+](C)(C)CCCNC(=O)C(CC)CCCC (centres unmarked) [R *C7 branch, R^4 C12, X I] | 3.12 µg/mL | 50 µg/mL | 1.56 µg/mL | 3.12 µg/mL | 12.5 µg/mL | – | – | – | – | – | – | – | – | – | – | – | –
CCCCCCCC[N+](CC)(CC)CCNC(=O)C12CC3CC(CC(C3)C1)C2 [R^4 =C8 H17, reference compound] | – | – | – | – | – | 100 µg/mL | 50 µg/mL | – | – | 25 µg/mL | 25 µg/mL | 50 µg/mL | 12.5 µg/mL | 50 µg/mL | – | – | –
CCCCCCCCCCCCCC[N+](C)(C)CCCNC(=O)CCCCCCC.[Cl-] [R C7, R^4 C14, X Cl, 3-Octaneamidopropyldimethyltetradecyl ammonium chloride] | 3.12 µg/mL | 50 µg/mL | 0.78 µg/mL | 1.56 µg/mL | 3.12 µg/mL | – | – | – | – | – | – | – | – | – | – | – | –
CCCC[N+](CC)(CC)CCNC(=O)C12CC3CC(CC(C3)C1)C2 [R^4 =C4 H9, reference compound] | – | – | – | – | – | 100 µg/mL | 100 µg/mL | – | – | 100 µg/mL | 100 µg/mL | 50 µg/mL | 100 µg/mL | 50 µg/mL | – | – | –
CCCCCCCCCCCCCC[N+](C)(C)CCCNC(=O)C(CC)CCCC (centres unmarked) [R *C7 (branch), R^4 C14, X Cl] | 3.12 µg/mL | 50 µg/mL | 0.78 µg/mL | 1.56 µg/mL | 6.25 µg/mL | – | – | – | – | – | – | – | – | – | – | – | –
CCCCCCCCCCCC[N+](C)(C)CCCNC(=O)C12CC3CC(CC(C3)C1)C2 [Comp.9, 3-(1'-adamantanecarboxamido)propyldimethyldodecyl ammonium bromide] | – | – | – | – | – | 25 µg/mL | 6.25 µg/mL | 50 µg/mL | – | 0.78 µg/mL | – | – | – | 12.5 µg/mL | 0.39 µg/mL | – | –
CCCCCCCCCCCC(=O)NCCC[N+](C)(C)C [R C11, R^4 C1, X I, reference compound] | 50 µg/mL | 50 µg/mL | 50 µg/mL | 50 µg/mL | 50 µg/mL | – | – | – | – | – | – | – | – | – | – | – | –
